Measurements as given in US20100284925A1, “Small Molecule Intervention for Obesity” (priority 2006, published 2010).

Key:
[1] = tested on: NIH-3T3/L1 preadipocytes; assay: Differentiation of NIH-3T3/L1 preadipocytes into adipocytes (oil red O or Nile Red staining); type: cell-based
Procedure: FIG. 7. […] NIH-3T3/L1 cells were induced into differentiation and simultaneously treated with 2 μM of prieurianin. Differentiated cells were stained with oil red O—FIG. 7A, undifferentiated control.
Histogram represents A510 nm absorbance of oil red O stain isopropanol extracts from cells. Results are means±S.E. of triplicate experiments.
FIG. 19. Effects of bufalin on preadipocyte differentiation, and dedifferentiation/delipidation in adipo-cytes. NIH-3T3/L1 cells were induced into differentiation and simultaneously treated with either 1 μM of bufalin or 2 μM of prieurianin. Differentiated cells were stained with Nile Red. Alternatively, preadipocytes were induced into differentiation and five days following differentiation, cells were treated with either 1 μM of bufalin or 2 μM of prieurianin for an additional five days and followed by staining with Nile Red. Stained cells were evaluated by fluorescence microscopy.
To determine the effects of prieurianin on the differentiation of preadipocytes to adipocytes, the NIH-3T3/L1 preadipocytes were treated with or without the drug at the same time when induction of differentiation was initiated.

[2] = Body weight, food intake, serum parameters and adiposity in leptin-deficient ob/ob mice; type: in vivo
Procedure: FIG. 4. Effects of prieurianin on blood insulin, glucose and NEFA levels. Normal and ob/ob mice were treated with 5 mg/kg of prieurianin and serum samples were then collected for (FIG. 4A) insulin; (FIG. 4B) glucose; and (FIG. 4C) non-esterified fatty acid (NEFA) profiling. Results are means of three animals per group for each treatment. Blue column, normal C57BL/6J; and red column, leptin-deficient ob/ob mice.
FIG. 5. Effects of prieurianin on adiposity in ob/ob mice. The leptin-deficient ob/ob mice were treated with 5 mg/kg of prieurianin and subcutaneous and visceral adipose tissues were excised and weighed. Results are means of three to five animals per group as indicated (n).
Prieurianin was administered intraperitoneally to 12-14 week-old normal C57BL/6J mice and the genetically leptin-deficient ob/ob mice (2 or 5 mg/kg) twice a week for two weeks. Controls received equivolume injections of drug vehicle. Body weight and food intake were measured every three days, and blood samples were collected at the end of the experiment.
Obesity contributes to hypertension, high serum cholesterol, low HDL cholesterol, and hyperglycemia, thus potentially leading to higher risk of cardiovascular disease. Abdominal obesity especially correlates with metabolic risk factors. The leptin-deficient ob/ob mice are hyperlipidemic, and hyperglycemic. To test whether prieurianin altered the metabolic or endocrinological parameters in addition to appetite, the serum lipid profile, insulin and glucose levels were measured.
To further examine the effects of prieurianin on the adiposity of the normal C57BL/6J and the ob/ob mice, we measured their visceral and subcutaneous body fat.

For C=C1[C@@H]([C@@]2(C)[C@@H](OC(C)=O)CC(=O)O[C@](C)(COC(C)=O)[C@@H]2C(=O)OC)[C@@H](OC=O)[C@H](OC(=O)[C@H](O)[C@H](C)CC)[C@@]2(C)[C@H](c3ccoc3)CC(=O)[C@]12O [prieurianin], the preadipocytes differentiation ([1]; 2 μM, in the absence of staurosporine) was “almost completely inhibited preadipocytes differentiation”, the “differentiation of preadipocytes into lipid accumulating adipocytes” value ([1]; treated at induction of differentiation, oil red O) was “dose-dependently prevented the differentiation of preadipocytes” and the “serum PLTP activity” value [2] was “decrease in serum PLTP activity”. The NEFA levels ([2]; 5 mg/kg) was “only a modest decrease in NEFA levels”, the “hyperglycemia (glucose level)” value ([2]; 5 mg/kg) was “reversed to levels comparable to those of normal controls” and the insulin levels ([2]; 5 mg/kg) was “reduce by approximately three to four-fold”. For the same molecule, the “subcutaneous and visceral adipose tissues” value ([2]; 5 mg/kg) was “significantly reduced both the subcutaneous and visceral adipose tissues”, the “decrease in food intake” value ([2]; 5 mg/kg group, relative to untreated or vehicle treated controls) was no more than 50% and the “reduction of total body fat” value ([2]; 5 mg/kg, vs untreated and vehicle-treated controls) was “greater than 50%”. The “reduction in total body weight” value ([2]; 2 or 5 mg/kg i.p. twice a week, after two weeks) was “up to 10%”, the total cholesterol level ([2]; serum) was “significantly lower” and the triglyceride levels ([2]; serum) was “no significant changes”. The HDL levels ([2]; vs untreated and vehicle-treated) was “approximately two-fold lower”.
